Laboratory results reported in article PMC8587849, “Antimicrobial and Anticancer Application of Silver(I) Dipeptide Complexes” (Molecules, 2021).
“And” between values parts separate entries of the source, which are not always exact repeats. Identical values can stand only once. Like-named read-outs stand apart in the source and are kept apart here.

Columns and labels:
[1] = tested on: Microsporum gypseum CCM F-8342; test: Antifungal activity (filamentous fungi), macrodilution on solidified PDA; type: cell-based; details: M.gypseum
Protocol: (§4) Cultures of bacteria (in Mueller-Hinton broth, MHB) and yeasts (in Sabouraud’s growth medium, SB) were incubated under shaking (250 rpm) at 37 °C. The growth of bacteria and yeasts was evaluated by measuring the absorbance of the growing cultures (A550) until the cultures reached the stationary growth phase. […] During culturing, the diameters of growing fungal colonies were measured at regular intervals [71, 72]. […] The final concentration of DMSO never exceeded 1.0 vol. % in the control or treated samples. […] The IC50 and MIC90 with respect to MIC80 values were evaluated from toxicity curves.

Candida albicans SC 5314 = test: Antifungal activity (yeast), macrodilution method; type: cell-based; details: C. albicans
Protocol: as §4

[2] = tested on: Staphylococcus epidermidis CCM 7221; test: Antibacterial activity, macrodilution method; type: cell-based; details: S.epidermidis
Protocol: (§5) Cultures of bacteria (in Mueller-Hinton broth, MHB) and yeasts (in Sabouraud’s growth medium, SB) were incubated under shaking (250 rpm) at 37 °C. The growth of bacteria and yeasts was evaluated by measuring the absorbance of the growing cultures (A550) until the cultures reached the stationary growth phase. […] The final concentration of DMSO never exceeded 1.0 vol. % in the control or treated samples. […] The IC50 and MIC90 with respect to MIC80 values were evaluated from toxicity curves.

S. aureus biofilm = test: Influence on S. aureus biofilm formation, crystal violet staining; type: cell-based; details: for A570 (biofilm, crystal violet): control A570 = 0.47; for I: biofilm intensity: control strong
Protocol: The biofilm was qualified by the crystal violet staining method. Briefly, overnight cultures of bacteria S.aureus (in MHB) and yeasts C.parapsislosis (in SB) were prepared. The fresh prepared growth media MHB and SB were inoculated with the overnight culture for a final concentration of 5 × 10^6 cells mL^−1. The microbial biofilm was formed in 96-well microplates for adherent cells. […] Prepared cultures were incubated for 2 h at 37 °C. […] The treatment with DMSO (solvent) alone served as a control. The inoculated microplates were incubated at 37 °C for the next 46 h. […] Microplates with mature biofilm were decanted and washed using 200 μL of saline solution. The plate was left for 15 min to dry completely at laboratory temperature. Then, 110 μL of 0.4% crystal violet dye was added to each well, and the plate was incubated for 15 min at laboratory temperature. After the decantation, the plate was washed 3 times with 200 μL of saline solution. Then, 200 μL of 96% ethanol was added. The microplate was left to incubate for 15 min at laboratory temperature. After the transfer of the well content to a clean microplate, the absorbance (570 nm) of released crystal violet (proportionate to biofilm cell density) was measured,, and the values were evaluated as weak biofilm formation A570 <0.1; 0.199>, medium biofilm formation A570 <0.2; 0.3>, strong biofilm formation A570 <0.301; 0.999>, or very strong biofilm formation A570 ≥ 1.00.

CT DNA = test: UV-Vis absorption titration with CT DNA; type: binding, calf; details: 0.01 M Tris-HCl pH 7.4; complex 7.85 × 10^−5 M
Protocol: UV–vis spectra were measured in 0.01 M Tris-HCl buffer (pH 7.4) using a Varian Cary 100 Bio spectrophotometer in the range of 230–320 nm and recorded at room temperature (24 °C) using a quartz cuvette of 1 cm path length. The concentration of investigated Ag(I) complexes was 7.85 × 10^−5 M. During the titration, an aliquot of buffered CT DNA solution was added to each cuvette (sample and reference) to eliminate the absorbance of DNA itself. The DNA concentration per nucleotide was determined by absorption spectroscopy using the molar absorption coefficient (6600 M^−1cm^−1) at 260 nm.

[3] = tested on: methicillin-resistant Staphylococcus aureus L12; test: Antibacterial activity, macrodilution method; type: cell-based; details: S. aureus L12 (MRSA)
Protocol: as §5

CT DNA–HO system = test: Fluorescence competitive binding with Hoechst 33258; design: species or system calf; details: displacement of Hoechst 33258 from CT DNA; 462 nm; 10 mM Tris-HCl pH 7.4
Protocol: The fluorescence competitive binding studies of silver(I) complexes with Hoechst 33 258 (HO) were performed on a Varian Cary Eclipse spectrophotometer. The emission spectra of DNA–HO were measured in the range of 400–550 nm using an excitation wavelength of 343 nm with a slit width of 5 nm for the excitation and 5 nm for the emission beam. […] Ksv quenching constant was determined according to the classical Stern-Volmer Equation (1) in [63, 75]:F0/F = 1 + KSV [Q](1) where F0 and F are the fluorescence intensities in the absence and the presence of the quencher at 462 nm, KSV is the Stern-Volmer quenching constant and [Q] is the concentration of the quencher.

MCF-7 = test: MTS antiproliferative assay; type: cell-based, human; details: 72 h
Protocol: (§1) After 72 h of incubation, 10 µL of MTS was added to each well. […] IC50 values were calculated from MTS analyses.

HeLa = test: MTS antiproliferative assay; type: cell-based, human; details: 72 h
Protocol: as §1

[4] = tested on: Escherichia coli (E. coli) CCM 3988; test: Antibacterial activity, macrodilution method; type: cell-based
Protocol: as §5

A.flavus = test: Antifungal activity (filamentous fungi); type: cell-based; details: read-out: IC50 and MIC100 (class symbol)
Protocol: as §4

BJ-5ta = test: MTS assay on fibroblasts; type: cell-based; details: BJ-5ta human skin fibroblasts, 72 h
Protocol: as §1

[5] = tested on: Alternaria alternata CCM F-128; test: Antifungal activity (filamentous fungi), macrodilution on solidified PDA; type: cell-based; details: A. alternata; for IC50: read-out: IC50; for MIC100: suffix s = fungistatic
Protocol: as §4

MDA-MB-231 = test: MTS antiproliferative assay; type: cell-based, human; details: 72 h
Protocol: (§2) Cells were maintained in standard conditions with an atmosphere containing 5% CO2 at 37 °C.
as §1

BLM = test: MTS antiproliferative assay; type: cell-based, human; details: for IC50: BLM, MTS, 72 h
Protocol: as §2, §1

HCT116 = test: MTS antiproliferative assay; type: cell-based, human; details: 72 h
Protocol: as §2, §1

Jurkat = test: MTS antiproliferative assay; type: cell-based, human; details: 72 h
Protocol: as §2, §1

[6] = tested on: Candida parapsilosis ATCC 22019; test: Antifungal activity (yeast), macrodilution method; type: cell-based; details: C. parapsilosis
Protocol: as §5

[7] = tested on: Rhizopus oryzae CCM F-8284; test: Antifungal activity (filamentous fungi), macrodilution on solidified PDA; type: cell-based; details: for IC50: read-out: IC50; for MIC100: suffix s = fungistatic
Protocol: as §4

[8] = tested on: Staphylococcus aureus CCM 3953; test: Antibacterial activity, macrodilution method; type: cell-based; details: S. aureus
Protocol: as §5

MDA-MB-231 cells = test: Cell cycle analysis by flow cytometry; type: cell-based, human; details: treated with IC50
Protocol: (§3) Prior to each analysis, cells were washed in PBS, followed by resuspending in staining solution (0.5 mg/mL ribonuclease A, 0.2% final concentration Triton X-100, propidium iodide 0.025 mg/mL in 500 µL PBS) (all Sigma Aldrich), and incubated for 30 min at room temperature in the dark. For analysis of stained cells, a BD FACSCalibur flow cytometer (BD Bio-sciences) was used. A minimum of 1 × 10^4 events were analysed per analysis.

BLM cells = test: Cell cycle analysis by flow cytometry; type: cell-based, human; details: treated with IC50
Protocol: as §3

HCT116 cells = test: Cell cycle analysis by flow cytometry; type: cell-based, human; details: treated with IC50
Protocol: as §3

Jurkat cells = test: Cell cycle analysis by flow cytometry; type: cell-based, human; details: treated with IC50
Protocol: as §3

[Ag2(GlyAla)(NO3)2]n [AgGlyAla]
IC50 ([1]; read-out: IC50): 75 µM
MIC100 ([1]; suffix s = fungistatic): 100 µM
IC50 (Candida albicans SC 5314): 50 µM
MIC80 (Candida albicans SC 5314): 87 µM
IC50 [2]: 8 µM
MIC90 [2]: 10 µM
A570 (biofilm, crystal violet) (S. aureus biofilm; complex concentration 5 µM): 0.51
I: biofilm intensity (S. aureus biofilm; complex concentration 5 µM): strong (strong biofilm formation A570 <0.301; 0.999>)
A570 (biofilm, crystal violet) (S. aureus biofilm; complex concentration 10 µM): 0.41
I: biofilm intensity (S. aureus biofilm; complex concentration 10 µM): strong (strong biofilm formation A570 <0.301; 0.999>)
A570 (biofilm, crystal violet) (S. aureus biofilm; complex concentration 25 µM): 0.25
A570 (biofilm, crystal violet) (S. aureus biofilm; complex concentration 50 µM): 0.23
A570 (biofilm, crystal violet) (S. aureus biofilm; complex concentration 100 µM): 0.25
I: biofilm intensity (S. aureus biofilm; complex concentration 100 µM): medium (medium biofilm formation A570 <0.2; 0.3>)
Hypochromism (CT DNA): 40.7%
Δλmax (red shift on addition of CT DNA) (CT DNA): 9 nm
IC50 [3]: 9 µM
MIC90 [3]: 20 µM
KSV (Stern-Volmer quenching constant) (CT DNA–HO system): 7.97 ± 0.03 × 10^4 M^−1
IC50 (MCF-7): 7.5 µM
IC50 (HeLa): 33.2 µM
IC50 [4]: 6 µM
MIC90 [4]: 9 µM
IC50 (A.flavus): > 100 µM
IC50 (BJ-5ta): 40.2 µM
IC50 [5]: 42 µM
MIC100 [5]: > 100 µM
IC50 (MDA-MB-231): 7.4 µM
IC50 (BLM): 10.9 µM
Selectivity index (SI) (BLM; ratio of IC50 values BJ-5ta/BLM): 3.7
IC50 (HCT116): 28 µM
IC50 (Jurkat): 9.7 µM
IC50 [6]: 30 µM
MIC80 [6]: 60 µM
IC50 [7]: 30 µM
MIC100 [7]: 50 µM
IC50 [8]: 7 µM
MIC90 [8]: 11 µM
cells in G2/M (MDA-MB-231 cells; 24 h): 22.8 ± 2.5% and 22.8%
cells in S (MDA-MB-231 cells; 24 h): 11.2 ± 2.0%
cells in G2/M (MDA-MB-231 cells; 48 h): 19.4 ± 0.1%
cells in S (MDA-MB-231 cells; 48 h): 11.1 ± 0.7%
cells in G2/M (BLM cells; 48 h): 28.9 ± 2.7%
cells in S (BLM cells; 48 h): 19.5 ± 0.1%
cells in G2/M (BLM cells; 72 h): 27.3 ± 1.3%
cells in S (BLM cells; 72 h): 18.8 ± 0.4%
cells in G2/M (HCT116 cells; 48 h): 14.0 ± 0.4%
cells in S (HCT116 cells; 48 h): 7.0 ± 0.3%
cells in G2/M (HCT116 cells; 72 h): 7.6 ± 1.7%
cells in S (HCT116 cells; 72 h): 8.1 ± 1.2%
cells in G2/M (Jurkat cells; 48 h): 17.9 ± 1.8%
cells in S (Jurkat cells; 48 h): 12.6 ± 0.5%
cells in G2/M (Jurkat cells; 72 h): 10.3 ± 3.1%
cells in S (Jurkat cells; 72 h): 12.1 ± 1.8%

[Ag2(HGlyAsp)(NO3)]n [AgGlyAsp]
IC50 ([1]; read-out: IC50 and MIC100 (class symbol)): > 100 µM
IC50 (Candida albicans SC 5314): 73 µM
MIC80 (Candida albicans SC 5314): 100 µM
IC50 [2]: 25 µM
MIC90 [2]: 50 µM
A570 (biofilm, crystal violet) (S. aureus biofilm; complex concentration 5 µM): 0.36
I: biofilm intensity (S. aureus biofilm; complex concentration 5 µM): strong (strong biofilm formation A570 <0.301; 0.999>)
A570 (biofilm, crystal violet) (S. aureus biofilm; complex concentration 10 µM): 0.35
I: biofilm intensity (S. aureus biofilm; complex concentration 10 µM): strong (strong biofilm formation A570 <0.301; 0.999>)
A570 (biofilm, crystal violet) (S. aureus biofilm; complex concentration 50 µM): 0.24
A570 (biofilm, crystal violet) (S. aureus biofilm; complex concentration 100 µM): 0.25
I: biofilm intensity (S. aureus biofilm; complex concentration 100 µM): medium (medium biofilm formation A570 <0.2; 0.3>)
Hypochromism (CT DNA): 30% and 30.8%
Δλmax (red shift on addition of CT DNA) (CT DNA): 13 nm
IC50 [3]: 31 µM
MIC90 [3]: 49 µM
KSV (Stern-Volmer quenching constant) (CT DNA–HO system): 8.33 ± 0.07 × 10^4 M^−1
IC50 (MCF-7): 33.8 µM
IC50 (HeLa): 33.3 µM
IC50 [4]: 17 µM
MIC90 [4]: 23 µM
IC50 (A.flavus): > 100 µM
IC50 (BJ-5ta): 57.6 µM
IC50 [5]: 35 µM
MIC100 [5]: > 100 µM
IC50 (MDA-MB-231): 33.6 µM
IC50 (BLM): 35.6 µM
IC50 (HCT116): 35.5 µM
IC50 (Jurkat): 36.8 µM
IC50 [6]: 50 µM
MIC80 [6]: 100 µM
IC50 [7]: 73 µM
MIC100 [7]: 100 µM
IC50 [8]: 51 µM
MIC90 [8]: 96 µM
cells in G2/M (MDA-MB-231 cells; 24 h): 30.6%
cells in G2/M (MDA-MB-231 cells; 48 h): 25.8 ± 0.5%
cells in S (MDA-MB-231 cells; 48 h): 10.6 ± 1.9%
cells in G2/M (MDA-MB-231 cells; 72 h): 9.6 ± 1.2%
cells in S (MDA-MB-231 cells; 72 h): 7.1 ± 2.4%
cells in G2/M (BLM cells; 24 h): 14.8 ± 0.2%
cells in S (BLM cells; 24 h): 13.8 ± 3.0%
cells in Sub-G0 (BLM cells; 24 h): 51.7%
cells in G2/M (BLM cells; 48 h): 10.9 ± 2.8%
cells in S (BLM cells; 48 h): 10.8 ± 2.5%
cells in Sub-G0 (BLM cells; 48 h): 56.1%
cells in Sub-G0 (BLM cells; 72 h): 59.3%
cells in G2/M (HCT116 cells; 24 h): 16.8 ± 2.4%
cells in S (HCT116 cells; 24 h): 16.3 ± 2.3%
cells in G2/M (HCT116 cells; 48 h): 11.7 ± 3.4%
cells in S (HCT116 cells; 48 h): 10.3 ± 1.3%
cells in G2/M (Jurkat cells; 24 h): 15.5 ± 2.7%
cells in S (Jurkat cells; 24 h): 14.0 ± 0.6%
cells in G2/M (Jurkat cells; 48 h): 6.3 ± 0.3%
cells in S (Jurkat cells; 48 h): 12.4 ± 1.1%
